The results in this text go back to patent US20220002816A1, “IDENTIFICATION OF JUND TARGET GENES FOR INHIBITION OF PROSTATE CANCER CELL GROWTH” (Center for Cancer Research & Therapeutic Development, Clark …, priority 2018, published 2022).

Holding throughout (assay type): cell-based, Human
For test [1], the system named is JunD target genes protein levels in DU145 vector cells. Description: Western blot of JunD target gene protein levels after JQ1 treatment. Conditions: 5 μM JQ1, 72 hrs. Here is the method: (§1) DU145 vector and DU145 JunD overexpressed (D1) cells plated at a density of 2×10^4 cells/ml in 24 well plates (for cell proliferation assays) or at a density of 1.5×10^5 cell/ml in 6 well plates (for cell lysates) were treated in the presence or absence of 5 μM JQ1 for 72 hrs. Control cells were treated with DMSO. Cells were then counted using a hemacytometer and cell lysates were collected for western blot analyses.
(§2) Following siRNA transient transfections, PC3 and DU145 cell lysates from several independent experiments were collected as previously described. In brief, equal amounts of protein (50 μg) were separated by electrophoresis using 10% SDS-polyacrylamide gels and then transferred to PVDF membranes (Millipore, Billerica, Mass.). After being blocked with 5% milk, the membranes were incubated with specific primary antibodies (1:800 dilution for JunD; 1:500 dilution for anti-PRDX3, anti-CDK2, anti-CDK4, anti-KIF2C, anti-EIF1, anti-PEA15, anti-CCNA1, anti-ADRA2B, anti-TCF4, anti-ANAX2, anti-ELMO2, and anti-ERO1-La; 1:200 dilution for anti-PLCD4, anti-c-MYC, and anti-PTMA; 1:3000 dilution for anti-α-Tubulin) overnight at 4° C. and then incubated with appropriate horseradish peroxidase-conjugated secondary antibody for 1 h. […] The relative intensities of specific protein were determined by ImageJ software (NIH version: 1.8.0_112).
(A western blot detects proteins with antibodies after separation by electrophoresis.)

The test system of test [2] is JunD target genes protein levels in DU145 JunD overexpressed (D1) cells. The test is described as above. Conditions: 5 μM JQ1, 72 hrs. The method, then: as §1, §2
In test [3] the test system is DU145 JunD overexpressed (D1) cells. Description: Cell proliferation assay (cell counting) after JQ1 treatment. Conditions: 5 μM JQ1, 72 hrs, DU145 D1 (JunD overexpressing) cells, vs DMSO control, p<0.001. The method, then: (§3) Human prostate cancer cell lines (PC3 and DU145) were purchased from ATCC (Manassas, Va.). Cells were cultured in the recommended growth media [MEM media supplemented with 5% fetal bovine serum (FBS)] in 100% humidity at 37° C. with 5% CO2 as described previously. DU145 cells overexpressing JunD (D1), generated from a previous study were cultured as above, with an addition of […] G418 [29].
as §1

A further test concerns DU145 vector cells. The description is as above. Conditions: 5 μM JQ1, 72 hrs, vs DMSO control, p<0.001. The method, then:
as §3, §1

For the molecule `Cc1sc2c(c1C)C(c1ccc(Cl)cc1)=N[C@@H](CC(=O)OC(C)(C)C)c1nnc(C)n1-2` [JQ1], the “JunD target genes protein levels” value in test [1] and in test [2] was “decreased” throughout. Besides, the cell proliferation result (in test [3]; with DU145 vector cells) was “significantly reduced” in each case.
